Reference: ChEMBL document CHEMBL1201862, “PubChem BioAssay data set” (2004)
Calls of active or inactive are those of the source.

What was measured:
[1] = molecular target: Cytochrome P450 2C9 (Homo sapiens, UniProt P11712)
[2] = molecular target: T1, Cytochrome P450 1A2 (Homo sapiens, UniProt P05177);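 further: PubChem cytochrome P450 panel assay, CYP1A2 panel member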
T1 sequence (P05177 whole entry): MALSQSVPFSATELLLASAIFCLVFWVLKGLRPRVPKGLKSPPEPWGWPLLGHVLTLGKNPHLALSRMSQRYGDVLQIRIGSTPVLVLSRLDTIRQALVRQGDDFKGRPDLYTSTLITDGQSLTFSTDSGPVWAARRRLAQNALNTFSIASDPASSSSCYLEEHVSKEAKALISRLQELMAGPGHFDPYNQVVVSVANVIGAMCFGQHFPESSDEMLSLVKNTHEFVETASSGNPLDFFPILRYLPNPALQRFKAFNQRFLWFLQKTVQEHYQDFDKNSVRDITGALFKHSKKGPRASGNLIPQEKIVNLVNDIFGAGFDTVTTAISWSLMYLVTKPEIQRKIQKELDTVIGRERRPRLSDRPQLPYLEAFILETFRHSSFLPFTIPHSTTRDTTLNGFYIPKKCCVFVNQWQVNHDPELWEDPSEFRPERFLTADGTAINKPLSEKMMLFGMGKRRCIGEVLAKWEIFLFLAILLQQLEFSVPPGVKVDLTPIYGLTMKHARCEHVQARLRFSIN

[3] = molecular target: Cytochrome P450 3A4 (Homo sapiens, UniProt P08684);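 further: CYP3A4 tested as one member of a cytochrome P450 panel screen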
Chain of Cytochrome P450 3A4 (P08684 whole entry): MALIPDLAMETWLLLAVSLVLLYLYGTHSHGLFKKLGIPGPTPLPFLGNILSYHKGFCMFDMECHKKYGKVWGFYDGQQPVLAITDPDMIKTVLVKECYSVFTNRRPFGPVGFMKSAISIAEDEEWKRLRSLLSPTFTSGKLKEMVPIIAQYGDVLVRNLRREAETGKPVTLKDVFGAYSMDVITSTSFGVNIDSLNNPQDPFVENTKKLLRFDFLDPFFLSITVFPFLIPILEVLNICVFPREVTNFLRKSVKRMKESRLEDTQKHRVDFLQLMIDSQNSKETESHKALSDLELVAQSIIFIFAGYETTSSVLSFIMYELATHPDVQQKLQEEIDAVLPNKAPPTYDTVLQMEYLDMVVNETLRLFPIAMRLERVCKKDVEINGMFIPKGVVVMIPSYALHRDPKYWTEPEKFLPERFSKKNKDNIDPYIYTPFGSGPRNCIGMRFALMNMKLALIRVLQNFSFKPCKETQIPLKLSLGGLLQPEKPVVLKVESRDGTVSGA

[4] = molecular target: Tyrosine-protein phosphatase non-receptor type 5 (Homo sapiens, UniProt P54829); assay: PTPN5 enzyme inhibition – biochemical, fluorescence intensity, uHTS hits, confirmation (AID 602372); assay type: functional; conditions: read-out: IC50_Mean
Chain of Tyrosine-protein phosphatase non-receptor type 5 (P54829 whole entry): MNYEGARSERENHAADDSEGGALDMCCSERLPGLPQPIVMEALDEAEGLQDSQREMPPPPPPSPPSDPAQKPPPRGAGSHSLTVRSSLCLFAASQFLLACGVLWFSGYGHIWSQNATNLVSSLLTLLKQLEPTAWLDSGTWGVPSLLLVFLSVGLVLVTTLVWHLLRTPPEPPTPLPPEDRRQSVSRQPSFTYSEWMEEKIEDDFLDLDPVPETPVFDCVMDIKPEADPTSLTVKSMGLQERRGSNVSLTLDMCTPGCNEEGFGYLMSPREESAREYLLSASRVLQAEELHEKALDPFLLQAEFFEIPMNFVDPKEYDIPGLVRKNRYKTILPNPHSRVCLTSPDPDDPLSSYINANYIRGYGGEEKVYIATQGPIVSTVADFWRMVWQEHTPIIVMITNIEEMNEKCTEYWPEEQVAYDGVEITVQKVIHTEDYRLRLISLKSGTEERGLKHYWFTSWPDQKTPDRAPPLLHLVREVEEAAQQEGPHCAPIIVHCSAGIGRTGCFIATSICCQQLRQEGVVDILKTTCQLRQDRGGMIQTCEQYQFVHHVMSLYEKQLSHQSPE

[5] = molecular target: Dual specificity protein phosphatase 3 (Homo sapiens, UniProt P51452); assay: VHR phosphatase inhibition, dose response, selectivity assay for STEP inhibitor project, biochemical (AID 602374); assay type: functional; conditions: read-out: IC50_Mean
Chain of Dual specificity protein phosphatase 3 (P51452 whole entry): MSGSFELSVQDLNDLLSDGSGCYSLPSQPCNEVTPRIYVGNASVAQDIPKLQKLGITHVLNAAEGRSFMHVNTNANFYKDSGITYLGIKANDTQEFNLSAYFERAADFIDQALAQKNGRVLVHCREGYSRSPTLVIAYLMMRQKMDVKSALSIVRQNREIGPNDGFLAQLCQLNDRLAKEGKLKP

[6] = molecular target: Glucose-6-phosphate 1-dehydrogenase (Homo sapiens, UniProt P11413); assay: inhibition of Homo sapiens G6PD, dose series – biochemical, fluorescence, selectivity assay for P. falciparum G6PD inhibitor project, dose response (AID 504792); assay type: functional
Chain of Glucose-6-phosphate 1-dehydrogenase (P11413 whole entry): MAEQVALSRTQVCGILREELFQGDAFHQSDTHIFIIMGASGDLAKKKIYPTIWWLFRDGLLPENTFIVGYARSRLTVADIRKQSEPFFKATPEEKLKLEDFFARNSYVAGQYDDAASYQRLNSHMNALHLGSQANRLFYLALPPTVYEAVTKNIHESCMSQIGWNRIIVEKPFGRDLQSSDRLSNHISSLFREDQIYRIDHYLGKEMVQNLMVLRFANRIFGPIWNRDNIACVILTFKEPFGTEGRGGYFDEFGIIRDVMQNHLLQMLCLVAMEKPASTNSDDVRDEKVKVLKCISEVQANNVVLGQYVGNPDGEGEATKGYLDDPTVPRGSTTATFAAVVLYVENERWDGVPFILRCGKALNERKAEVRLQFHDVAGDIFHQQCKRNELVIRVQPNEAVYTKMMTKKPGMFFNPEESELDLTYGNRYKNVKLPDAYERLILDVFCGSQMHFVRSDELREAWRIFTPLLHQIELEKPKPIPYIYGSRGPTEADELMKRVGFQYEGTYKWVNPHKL

[7] = molecular target: Tyrosine-protein phosphatase non-receptor type 11 (Homo sapiens, UniProt Q06124); assay: PTPN11 enzyme inhibitors – biochemical, selectivity assay for STEP inhibitor project, dose response (AID 602367); assay type: functional; conditions: read-out: IC50_Mean
Chain of Tyrosine-protein phosphatase non-receptor type 11 (Q06124 whole entry): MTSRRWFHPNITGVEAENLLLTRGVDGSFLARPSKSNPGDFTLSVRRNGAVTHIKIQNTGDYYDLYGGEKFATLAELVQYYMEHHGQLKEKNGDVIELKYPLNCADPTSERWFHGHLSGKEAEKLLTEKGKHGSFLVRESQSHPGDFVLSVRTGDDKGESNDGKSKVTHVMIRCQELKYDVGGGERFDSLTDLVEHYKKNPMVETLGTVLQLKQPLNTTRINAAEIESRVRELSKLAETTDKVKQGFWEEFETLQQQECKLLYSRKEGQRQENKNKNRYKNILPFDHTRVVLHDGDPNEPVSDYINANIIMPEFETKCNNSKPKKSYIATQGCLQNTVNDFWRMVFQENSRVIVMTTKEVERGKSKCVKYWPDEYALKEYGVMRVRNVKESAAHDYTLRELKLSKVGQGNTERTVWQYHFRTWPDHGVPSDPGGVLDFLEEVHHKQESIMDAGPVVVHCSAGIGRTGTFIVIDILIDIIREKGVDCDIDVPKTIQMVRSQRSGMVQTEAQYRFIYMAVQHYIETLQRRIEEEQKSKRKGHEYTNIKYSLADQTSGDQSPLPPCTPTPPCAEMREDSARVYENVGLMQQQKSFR

[8] = molecular target: T2, Tyrosine-protein phosphatase non-receptor type 22 (Homo sapiens, UniProt Q9Y2R2); assay type: functional
T2 sequence (Q9Y2R2 whole entry): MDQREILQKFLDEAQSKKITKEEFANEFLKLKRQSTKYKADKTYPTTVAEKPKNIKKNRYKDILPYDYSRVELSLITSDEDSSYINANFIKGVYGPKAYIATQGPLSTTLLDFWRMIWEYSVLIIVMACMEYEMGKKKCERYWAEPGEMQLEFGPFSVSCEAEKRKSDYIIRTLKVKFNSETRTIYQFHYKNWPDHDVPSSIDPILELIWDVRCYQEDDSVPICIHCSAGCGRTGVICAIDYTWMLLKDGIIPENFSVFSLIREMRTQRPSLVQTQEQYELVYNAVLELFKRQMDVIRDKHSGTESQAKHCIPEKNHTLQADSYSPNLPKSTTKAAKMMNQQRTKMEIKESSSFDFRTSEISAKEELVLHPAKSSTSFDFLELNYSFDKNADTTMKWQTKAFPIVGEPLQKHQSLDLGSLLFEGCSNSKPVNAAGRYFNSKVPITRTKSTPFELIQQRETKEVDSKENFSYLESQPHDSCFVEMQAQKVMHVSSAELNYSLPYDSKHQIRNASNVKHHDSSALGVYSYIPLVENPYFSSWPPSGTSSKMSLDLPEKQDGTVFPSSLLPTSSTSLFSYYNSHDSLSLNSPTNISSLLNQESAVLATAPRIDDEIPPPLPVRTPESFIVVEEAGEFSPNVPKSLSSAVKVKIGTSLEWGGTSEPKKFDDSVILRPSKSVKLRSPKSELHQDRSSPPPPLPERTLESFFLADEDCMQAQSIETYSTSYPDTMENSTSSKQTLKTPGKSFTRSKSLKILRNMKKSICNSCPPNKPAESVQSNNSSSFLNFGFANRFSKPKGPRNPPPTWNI

[9] = Luminescence Cell-Based Dose Response to Identify Activators of Luciferase Translation or Activity in H4-C Neuroglioblastoma Cells. [Related pubchem assays: 1829 (Project Summary), 1814 (Primary HTS)]; assay type: functional
[10] = Luminescence Cell-Based Dose Confirmation HTS to Identify Activators of 5'UTR Stem-Loop Driven Alpha-Synuclein mRNA Translation in H4 Neuroglioblastoma Cells. [Related pubchem assays: 1829 (Project Summary), 1814 (Primary HTS)]; assay type: functional
[11] = Luminescence Cell-Based Dose Confirmation to Identify Activators of 5'UTR Stem-Loop Driven Alpha-Synuclein mRNA Translation in H4 Neuroglioblastoma Cells. [Related pubchem assays: 1829 (Project Summary), 1814 (Primary HTS)]; assay type: functional
[12] = Luminescence Cell-Based Dose Response to Identify Activators of 5'UTR Stem-Loop Driven Prion Protein mRNA Translation in H4-C Neuroglioblastoma Cells. [Related pubchem assays: 1829 (Project Summary), 1814 (Primary HTS)]; assay type: functional
[13] = Luminescence Cell-Based Dose Response HTS to Identify Activators of Luciferase Translation or Activity in H4 […] Cells. [Related pubchem assays: 1829 (Project Summary), 1814 (Primary HTS)]; assay type: functional
[14] = molecular target: T3, Tyrosine-protein phosphatase non-receptor type 7 (Homo sapiens, UniProt P35236); assay type: functional
T3 sequence (P35236 whole entry): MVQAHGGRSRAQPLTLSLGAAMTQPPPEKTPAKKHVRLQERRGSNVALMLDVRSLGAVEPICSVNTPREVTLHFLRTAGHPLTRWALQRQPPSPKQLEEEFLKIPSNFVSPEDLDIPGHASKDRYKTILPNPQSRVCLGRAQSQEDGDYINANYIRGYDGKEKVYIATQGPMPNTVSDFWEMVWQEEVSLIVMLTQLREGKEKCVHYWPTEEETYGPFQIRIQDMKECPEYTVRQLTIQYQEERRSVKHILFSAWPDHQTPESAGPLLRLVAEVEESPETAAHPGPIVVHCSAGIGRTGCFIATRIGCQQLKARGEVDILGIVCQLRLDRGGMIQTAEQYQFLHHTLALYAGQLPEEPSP

[15] = test system: H4; assay: Luminescence Cell-Based Dose Response HTS to Identify Activators of 5'UTR Stem-Loop Driven Prion Protein mRNA Translation in H4 Neuroglioblastoma Cells. [Related pubchem assays: 1829 (Project Summary), 1814 (Primary HTS)]; assay type: functional; conditions: Homo sapiens
[16] = molecular target: T2, Tyrosine-protein phosphatase non-receptor type 22; assay type: functional; remark: listed apart in the source
[17] = test system: HeLa; assay: ATP-based viability loss in HeLa cells – cell-based, CellTiter-Glo luminescence, cherry-pick samples, cytotoxicity control for MITF activator project, dose response (AID 540259); assay type: functional; conditions: Homo sapiens
[18] = viability of uninfected HEp-2 cells – cell-based, HTS, cytotoxicity control for RSV inhibitor project, dose response (AID 2410); assay type: functional; conditions: human respiratory syncytial virus
[19] = test system: Vero; assay: cells; assay type: functional, cell-based; conditions: Chlorocebus sabaeus

Chain of Cytochrome P450 2C9 (P11712 whole entry): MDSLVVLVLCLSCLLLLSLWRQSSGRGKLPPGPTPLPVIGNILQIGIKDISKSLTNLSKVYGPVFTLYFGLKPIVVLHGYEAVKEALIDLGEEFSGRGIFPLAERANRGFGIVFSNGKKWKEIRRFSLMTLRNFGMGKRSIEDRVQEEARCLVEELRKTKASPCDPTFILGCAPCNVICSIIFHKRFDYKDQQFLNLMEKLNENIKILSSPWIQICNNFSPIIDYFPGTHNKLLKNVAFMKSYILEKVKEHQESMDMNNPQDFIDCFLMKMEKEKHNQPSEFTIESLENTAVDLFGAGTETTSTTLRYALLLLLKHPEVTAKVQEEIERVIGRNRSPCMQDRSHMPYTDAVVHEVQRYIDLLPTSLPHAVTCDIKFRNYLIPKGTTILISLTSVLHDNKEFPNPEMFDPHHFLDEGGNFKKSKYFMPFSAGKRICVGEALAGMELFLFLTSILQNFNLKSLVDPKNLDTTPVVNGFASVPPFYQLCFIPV

COc1ccc(NC(=O)N2CC[C@@]3(CCCN(C(=O)c4c(C)noc4C)C3)C2)cc1
AC50 [1]: inconclusive | AC50 [2]: inconclusive | AC50 [3]: 7.94 µM (inconclusive)

O=S(=O)(Nc1ccc(Cl)cc1)c1ccc(N2CCOCC2)c(NC(=S)NCCN2CCOCC2)c1
IC50 [4]: 8.03 µM (active) | IC50 [5]: 0.342 µM (active) | IC50 [6]: > 80 µM (inactive) | IC50 [7]: 1.1 µM (active)

CCCCCOc1ccc(CN2CCOCC2)cc1Cl
IC50 [8]: > 79.4 µM (inactive) | EC50 [9]: 1.05 µM (active) | EC50 [10]: < 0.1 µM (active) | EC50 [11]: 0.731 µM (active) | EC50 [12]: 1.3 µM (active) | EC50 [13]: < 0.1 µM (inconclusive) | IC50 [14]: > 79.4 µM (inactive) | EC50 [15]: 35.5 µM (active) | IC50 [16]: > 79.4 µM (inactive)

CCCC(=O)Nc1ccc(C#Cc2ccccc2)cc1
AC50 [17]: 173 µM (active)

CCCCc1nc2cc(C(=O)N3CCN(c4nc(C)cnc4C)CC3)ccc2o1
AC50 [17]: 47.3 µM (active)

CSc1nnc2c3ccccc3n(CCc3ccccc3)c2n1
CC50 [18]: > 50 µM (active) | IC50 [19]: > 12.5 µM (active)
